Key:
[1] = system: RKO p27 or p21 uninduced (proliferating) colon adenocarcinoma cells; test: Alamar Blue cell viability assay, RKO p27 or p21 uninduced (proliferating); type: cell-based; conditions: Homo sapiens, RKOp27, 72 h, Table B2, anti-proliferative/cytotoxic activity, read-out: −log EC50 RKO p27 or p21 uninduced (proliferating) (converted)
Experimental: The anti-proliferative/cytotoxic activity of the compounds described herein can be tested on subclones of RKO human colon adenocarcinoma cells (Schmidt et al., Oncogene 19, 2423-2429; 2000) using the Alamar Blue cell viability assay (described in O'Brien et al. Eur J Biochem 267, 5421-5426, 2000). The compounds are dissolved as 10 mM solutions in DMSO and subsequently diluted in semi-logarithmic steps. DMSO dilutions are further diluted 1:100 into Dulbecco's modified Eagle's medium (DMEM) containing 10% fetal calf serum to a final concentration twice as much as the final concentration in the test. RKO subclones are seeded into 96 well flat bottom plates at a density of 4000 cells per well in a volume of 50 μl per well. 24 hours after seeding the 50 μl each of the compound dilutions in DMEM medium are added into each well of the 96 well plate. Each compound dilution is tested as triplicates. Wells containing untreated control cells are filled with 50 μl DMEM medium containing 1% DMSO. The cells are then incubated with the substances for 72 hours at 37° C. in a humidified atmosphere containing 5% carbon dioxide. To determine the viability of the cells, 10 μl of an Alamar Blue solution (Biosource) are added and the fluorescence is measured at an extinction of 544 nm and an emission of 590 nm. For the calculation of the cell viability the emission value from untreated cells is set as 100% viability and the emission rates of treated cells are set in relation to the values of untreated cells. Viabilities are expressed as % values. The Graphpad Prism program is used for the calculation of EC50 values for anti-proliferative/cytotoxic activity out of the obtained dose-response curves.
(§1) To determine the cell cycle specific mode of action, subclones of RKO colon adenocarcinoma cells (RKOp21 or RKOp27 as described by Schmidt et al. in Oncogene 19, 2423-2429; 2000) are seeded into 96 well flat bottom plates at a density of 16000 cells per well in a volume of 50 μl per well in DMEM growth medium with 10% FCS containing 10 μM Ponasterone A. 24 hours after seeding the 50 μl each of the compound dilutions in DMEM medium are added into each well of the 96-well plate. Each compound dilution is tested as triplicates. Wells containing untreated control cells are filled with 50 μl DMEM medium containing 1% DMSO. The cells are then incubated with the substances for 72 hours at 37° C. in a humidified atmosphere containing 5% carbon dioxide. To determine the viability of the cells, 10 μl of an Alamar Blue solution (Biosource) are added and the fluorescence is measured at an extinction of 544 nm and an emission of 590 nm. For the calculation of the cell viability the emission value from untreated cells is set as 100% viability and the emission rates of treated cells are set in relation to the values of untreated cells. Viabilities are expressed as % values. The Graphpad Prism program (GraphPad Software, Inc) is used for the calculation of EC50 values out of the obtained dose-response curves. Viability is compared of proliferating cells grown in the absence of the inducer Ponasterone A, versus viability of cells arrested by the expression of ectopic p27Kip1 induced by Ponasterone A.
(§2) Representative values for anti-proliferation/cytotoxicity [measured as −log EC50 (mol/l)] determined in the aforementioned assays follow from the following tables B1, B2 and B3, in which the numbers of the compounds correspond to the numbers of the examples.

[2] = system: RKO p27 or p21 induced (arrested) colon adenocarcinoma cells; test: Alamar Blue cell viability assay, RKO p27 or p21 induced (arrested); type: cell-based; conditions: Homo sapiens, RKOp27, Table B2, cells arrested by Ponasterone A, 72 hours, read-out: −log EC50 RKO p27 or p21 induced (arrested) (converted)
Experimental: as §1, §2

SMILES	EC50 [1]	EC50 [2]
CCN(CCO)CCN1C(=O)N2[C@H](c3cccc(O)c3)c3[nH]c4ccc(Cl)cc4c3C[C@@]2(C)C1=O (racemic) [Example 124, (3aSR,10RS)-6-Chloro-2-{2-[ethyl-(2-hydroxy-ethyl)-amino]-ethyl}-10-(3-hydroxy-phenyl)-3a-methyl-3a,4,9,10-tetrahydro-2,9,10a-triaza-cyclopenta[b]fluorene-1,3-dione]	≤ 39.8 nM	≥ 316 nM
COc1ccc2[nH]c3c(c2c1)C[C@@]1(C)C(=O)N(CCCN2CCCCC2)C(=O)N1[C@@H]3c1cccc(O)c1 (racemic) [Example 105, (3aSR,10RS)-10-(3-Hydroxy-phenyl)-6-methoxy-3a-methyl-2-(3-piperidin-1-yl-propyl)-3a,4,9,10-tetrahydro-2,9,10a-triaza-cyclopenta[b]fluorene-1,3-dione]	≤ 39.8 nM	≥ 316 nM
C=CCNCCN1C(=O)N2[C@H](c3cccc(O)c3)c3[nH]c4ccc(OC)cc4c3C[C@@]2(C)C1=O (racemic) [Example 84, (3aSR,10RS)-2-(2-Allylamino-ethyl)-10-(3-hydroxy-phenyl)-6-methoxy-3a-methyl-3a,4,9,10-tetrahydro-2,9,10a-triaza-cyclopenta[b]fluorene-1,3-dione]	≤ 39.8 nM	≥ 3160 nM
COc1ccc2[nH]c3c(c2c1)C[C@@]1(C)C(=O)N(CCNCC(F)F)C(=O)N1[C@@H]3c1cccc(O)c1 (racemic) [Example 73, (3aSR,10RS)-2-[2-(2,2-Difluoro-ethylamino)-ethyl]-10-(3-hydroxy-phenyl)-6-methoxy-3a-methyl-3a,4,9,10-tetrahydro-2,9,10a-triaza-cyclopenta[b]fluorene-1,3-dione]	39.8 to 251 nM	≥ 3160 nM
COc1ccc2[nH]c3c(c2c1)C[C@@]1(C)C(=O)N(CCN2CC=CCC2)C(=O)N1[C@@H]3c1cccc(O)c1 (racemic) [Example 68, (3aSR,10RS)-2-[2-(3,6-Dihydro-2H-pyridin-1-yl)-ethyl]-10-(3-hydroxy-phenyl)-6-methoxy-3a-methyl-3a,4,9,10-tetrahydro-2,9,10a-triaza-cyclopenta[b]fluorene-1,3-dione]	≤ 39.8 nM	≥ 3160 nM
CN(CCO)CCCN1C(=O)N2[C@H](c3cccc(O)c3)c3[nH]c4ccc(Cl)cc4c3C[C@@]2(C)C1=O (racemic) [Example 132, (3aSR,10RS)-6-Chloro-2-{3-[(2-hydroxy-ethyl)-methyl-amino]-propyl}-10-(3-hydroxy-phenyl)-3a-methyl-3a,4,9,10-tetrahydro-2,9,10a-triaza-cyclopenta[b]fluorene-1,3-dione]	≤ 39.8 nM	≥ 316 nM
C[C@@]12Cc3c([nH]c4ccc(Cl)cc34)[C@@H](c3cccc(O)c3)N1C(=O)N(CCNCC1CC1)C2=O (racemic) [Example 108, (3aSR,10RS)-6-Chloro-2-[2-(cyclopropylmethyl-amino)-ethyl]-10-(3-hydroxy-phenyl)-3a-methyl-3a,4,9,10-tetrahydro-2,9,10a-triaza-cyclopenta[b]fluorene-1,3-dione]	≤ 39.8 nM	≥ 316 nM
C=CCN(C)CCN1C(=O)N2[C@H](c3cccc(O)c3)c3[nH]c4ccc(OC)cc4c3C[C@@]2(C)C1=O (racemic) [Example 80, (3aSR,10RS)-2-[2-(Allyl-methyl-amino)-ethyl]-10-(3-hydroxy-phenyl)-6-methoxy-3a-methyl-3a,4,9,10-tetrahydro-2,9,10a-triaza-cyclopenta[b]fluorene-1,3-dione]	≤ 39.8 nM	≥ 3160 nM
CCN(CC)CCCN1C(=O)N2[C@H](c3cccc(O)c3)c3[nH]c4ccc(OC)cc4c3C[C@@]2(C)C1=O (racemic) [Example 107, (3aSR,10RS)-2-(3-Diethylamino-propyl)-10-(3-hydroxy-phenyl)-6-methoxy-3a-methyl-3a,4,9,10-tetrahydro-2,9,10a-triaza-cyclopenta[b]fluorene-1,3-dione]	≤ 39.8 nM	≥ 316 nM
CC1CCN(CCN2C(=O)N3[C@H](c4cccc(O)c4)c4[nH]c5ccc(Cl)cc5c4C[C@@]3(C)C2=O)CC1 (racemic) [Example 98, (3aSR,10RS)-6-Chloro-10-(3-hydroxy-phenyl)-3a-methyl-2-[2-(4-methyl-piperidin-1-yl)-ethyl]-3a,4,9,10-tetrahydro-2,9,10a-triaza-cyclopenta[b]fluorene-1,3-dione]	≤ 39.8 nM	≥ 3160 nM
COc1ccc2[nH]c3c(c2c1)C[C@@]1(C)C(=O)N(CCN(C)C(C)C)C(=O)N1[C@@H]3c1cccc(O)c1 (racemic) [Example 70, (3aSR,10RS)-10-(3-Hydroxy-phenyl)-2-[2-(isopropyl-methyl-amino)-ethyl]-6-methoxy-3a-methyl-3a,4,9,10-tetrahydro-2,9,10a-triaza-cyclopenta[b]fluorene-1,3-dione]	≤ 39.8 nM	≥ 3160 nM
C#CCN(C)CCN1C(=O)N2[C@H](c3cccc(O)c3)c3[nH]c4ccc(Cl)cc4c3C[C@@]2(C)C1=O (racemic) [Example 116, (3aSR,10RS)-6-Chloro-10-(3-hydroxy-phenyl)-3a-methyl-2-[2-(methyl-prop-2-ynyl-amino)-ethyl]-3a,4,9,10-tetrahydro-2,9,10a-triaza-cyclopenta[b]fluorene-1,3-dione]	39.8 to 251 nM	≥ 316 nM
C#CCNCCN1C(=O)N2[C@H](c3cccc(O)c3)c3[nH]c4ccc(Cl)cc4c3C[C@@]2(C)C1=O (racemic) [Example 127, (3aSR,10RS)-6-Chloro-10-(3-hydroxy-phenyl)-3a-methyl-2-(2-prop-2-ynylamino-ethyl)-3a,4,9,10-tetrahydro-2,9,10a-triaza-cyclopenta[b]fluorene-1,3-dione]	≤ 39.8 nM	≥ 316 nM
C[C@@]12Cc3c([nH]c4ccc(Cl)cc34)[C@@H](c3cccc(O)c3)N1C(=O)N(CCN1CC=CCC1)C2=O (racemic) [Example 100, (3aSR,10RS)-6-Chloro-2-[2-(3,6-dihydro-2H-pyridin-1-yl)-ethyl]-10-(3-hydroxy-phenyl)-3a-methyl-3a,4,9,10-tetrahydro-2,9,10a-triaza-cyclopenta[b]fluorene-1,3-dione]	≤ 39.8 nM	≥ 3160 nM
CCN(CCOC)CCN1C(=O)N2[C@H](c3cccc(O)c3)c3[nH]c4ccc(OC)cc4c3C[C@@]2(C)C1=O (racemic) [Example 79, (3aSR,10RS)-2-[2-[Ethyl-(2-methoxy-ethyl)-amino]-ethyl}-10-(3-hydroxy-phenyl)-6-methoxy-3a-methyl-3a,4,9,10-tetrahydro-2,9,10a-triaza-cyclopenta[b]fluorene-1,3-dione]	≤ 39.8 nM	≥ 3160 nM
COc1ccc2[nH]c3c(c2c1)C[C@@]1(C)C(=O)N(CCN2CCC(C)CC2)C(=O)N1[C@@H]3c1cccc(O)c1 (racemic) [Example 75, (3aSR,10RS)-10-(3-Hydroxy-phenyl)-6-methoxy-3a-methyl-2-[2-(4-methyl-piperidin-1-yl)-ethyl]-3a,4,9,10-tetrahydro-2,9,10a-triaza-cyclopenta[b]fluorene-1,3-dione]	39.8 to 251 nM	≥ 3160 nM
COc1ccc2[nH]c3c(c2c1)C[C@@]1(C)C(=O)N(CCCN2CCC(C)CC2)C(=O)N1[C@@H]3c1cccc(O)c1 (racemic) [Example 112, (3aSR,10RS)-10-(3-Hydroxy-phenyl)-6-methoxy-3a-methyl-2-[3-(4-methyl-piperidin-1-yl)-propyl]-3a,4,9,10-tetrahydro-2,9,10a-triaza-cyclopenta[b]fluorene-1,3-dione]	≤ 39.8 nM	≥ 316 nM
